In brackets after ≈: the same amount, converted by molar mass.
Assays:
Staphylococcus aureus [1] = test: Antibacterial activity against Staphylococcus aureus ATCC 29213 measured after 24 hrs by microplate reader analysis; format: functional
Staphylococcus aureus [2] = test: Antibacterial activity against methicillin-resistant Staphylococcus aureus N315 measured after 24 hrs by microplate reader analysis; format: functional
Staphylococcus aureus [3] = test: Antibacterial activity against methicillin-resistant Staphylococcus aureus NCTC 10442 measured after 24 hrs by microplate reader analysis; format: functional
[4] = Hemolytic activity in rabbit erythrocytes measured after 1 hr by microplate reader analysis; format: ADME, cell-based, Oryctolagus cuniculus, Erythrocyte
Bacillus spizizenii = test: Antibacterial activity against Bacillus subtilis ATCC 6633 measured after 24 hrs by microplate reader analysis; format: functional
Bacillus subtilis = test: Antibacterial activity against Bacillus subtilis CMCC 63501 measured after 24 hrs by microplate reader analysis; format: functional
[5] = tested on: Staphylococcus epidermidis; test: Antibacterial activity against Staphylococcus epidermidis ATCC 12228 measured after 24 hrs by microplate reader analysis; format: functional
[6] = tested on: Staphylococcus epidermidis; test: Antibacterial activity against Staphylococcus epidermidis CMCC 26069 measured after 24 hrs by microplate reader analysis; format: functional
[7] = Selectivity ratio of MIC for Staphylococcus aureus ATCC 29213 to MIC for Bacillus subtilis ATCC 6633; format: functional
[8] = Selectivity ratio of MIC for Staphylococcus aureus ATCC 29213 to MIC for Bacillus subtilis CMCC 63501; format: functional
[9] = Selectivity ratio of MIC for Staphylococcus aureus ATCC 29213 to MIC for Staphylococcus epidermidis ATCC 12228; format: functional
[10] = Selectivity ratio of MIC for Staphylococcus aureus ATCC 29213 to MIC for Staphylococcus epidermidis CMCC 26069; format: functional
[11] = Selectivity ratio of MIC for methicillin-resistant Staphylococcus aureus N315 to MIC for Bacillus subtilis ATCC 6633; format: functional
[12] = Selectivity ratio of MIC for methicillin-resistant Staphylococcus aureus N315 to MIC for Bacillus subtilis CMCC 63501; format: functional
[13] = Selectivity ratio of MIC for methicillin-resistant Staphylococcus aureus N315 to MIC for Staphylococcus epidermidis ATCC 12228; format: functional
[14] = Selectivity ratio of MIC for methicillin-resistant Staphylococcus aureus N315 to MIC for Staphylococcus epidermidis CMCC 26069; format: functional
[15] = Selectivity ratio of MIC for methicillin-resistant Staphylococcus aureus NCTC 10442 to MIC for Bacillus subtilis ATCC 6633; format: functional
[16] = Selectivity ratio of MIC for methicillin-resistant Staphylococcus aureus NCTC 10442 to MIC for Bacillus subtilis CMCC 63501; format: functional
[17] = Selectivity ratio of MIC for methicillin-resistant Staphylococcus aureus NCTC 10442 to MIC for Staphylococcus epidermidis ATCC 12228; format: functional
[18] = Selectivity ratio of MIC for methicillin-resistant Staphylococcus aureus NCTC 10442 to MIC for Staphylococcus epidermidis CMCC 26069; format: functional
[19] = Solubility of the compound in water; format: physicochemical; details: buffer

Compound	MIC (Staphylococcus aureus [1]) [µg/mL]	MIC (Staphylococcus aureus [2]) [µg/mL]	MIC (Staphylococcus aureus [3]) [µg/mL]	HC50 at 1 h [4] [µg/mL]	other results
CC(C)=CCn1c2ccccc2c2c(OCC(O)CN3CCN(C)CC3)cccc21 (stereo not drawn)	12.5 (≈ 30.7 µM)	12.5 (≈ 30.7 µM)	12.5 (≈ 30.7 µM)	70	
CC(C)=CCn1c2ccccc2c2c(OCC(O)CNC(=O)[C@@H](N)CCCNC(=N)N)cccc21 (stereo partly drawn)	6.25 (≈ 13 µM)	6.25 (≈ 13 µM)	6.25 (≈ 13 µM)	> 200	MIC (Bacillus spizizenii): 3.12 µg/mL (≈ 6.5 µM); MIC (Bacillus subtilis): 3.12 µg/mL (≈ 6.5 µM); MIC [5]: 3.12 µg/mL (≈ 6.5 µM); MIC [6]: 3.12 µg/mL (≈ 6.5 µM); Selectivity ratio [7]: 2; Selectivity ratio [8]: 2; Selectivity ratio [9]: 2; Selectivity ratio [10]: 2; Selectivity ratio [11]: 2; Selectivity ratio [12]: 2; Selectivity ratio [13]: 2; Selectivity ratio [14]: 2; Selectivity ratio [15]: 2; Selectivity ratio [16]: 2; Selectivity ratio [17]: 2; Selectivity ratio [18]: 2
CC(C)=CCn1c2ccccc2c2c(OCC(O)CNC(C)C)cccc21 (stereo not drawn)	6.25 (≈ 17.1 µM)	3.12 (≈ 8.53 µM)	3.12 (≈ 8.53 µM)	160	
CCCCN(CCCC)CC(O)COc1cccc2c1c1ccccc1n2CC=C(C)C (stereo not drawn)	> 50	> 50	> 50	> 200	
CCCNCC(O)COc1cccc2c1c1ccccc1n2CC=C(C)C (stereo not drawn)	6.25 (≈ 17.1 µM)	3.12 (≈ 8.53 µM)	6.25 (≈ 17.1 µM)	> 200	
CCCCCCCCNCC(O)COc1cccc2c1c1ccccc1n2CC=C(C)C (stereo not drawn)	6.25 (≈ 14.3 µM)	1.56 (≈ 3.57 µM)	1.56 (≈ 3.57 µM)	> 200	solubility [19]: Insoluble
CCCCCCCn1c2ccccc2c2c(OCC(O)CN(C)C)cccc21 (stereo not drawn)	6.25 (≈ 16.3 µM)	12.5 (≈ 32.7 µM)	12.5 (≈ 32.7 µM)	182	
CC(C)=CCn1c2ccccc2c2c(OCC(O)CNC(=O)[C@@H](N)CCCCN)cccc21 (stereo partly drawn)	25 (≈ 55.2 µM)	12.5 (≈ 27.6 µM)	25 (≈ 55.2 µM)	> 200	MIC (Bacillus spizizenii): 6.25 µg/mL (≈ 13.8 µM); MIC (Bacillus subtilis): 6.25 µg/mL (≈ 13.8 µM); MIC [5]: 6.25 µg/mL (≈ 13.8 µM); MIC [6]: 6.25 µg/mL (≈ 13.8 µM); Selectivity ratio [7]: 2; Selectivity ratio [8]: 2; Selectivity ratio [9]: 2; Selectivity ratio [10]: 2; Selectivity ratio [11]: 2; Selectivity ratio [12]: 2; Selectivity ratio [13]: 2; Selectivity ratio [14]: 2; Selectivity ratio [15]: 2; Selectivity ratio [16]: 2; Selectivity ratio [17]: 2; Selectivity ratio [18]: 2
CCCN(CCC)CC(O)COc1cccc2c1c1ccccc1n2CC=C(C)C (stereo not drawn)	> 50	> 50	> 50	> 200	
c1ccc2c(c1)[nH]c1cccc(OCC3CO3)c12 (stereo not drawn)	> 50	> 50	> 50	> 200	
CC(C)NCC(O)COc1cccc2[nH]c3ccccc3c12 (stereo not drawn) [CARAZOLOL]	> 50	> 50	> 50	> 200	
CCCCCCCn1c2ccccc2c2c(OCC3CO3)cccc21 (stereo not drawn)	> 50	> 50	> 50	> 200	
CC(C)=CCn1c2ccccc2c2c(OCC(O)CN(CCO)CCO)cccc21 (stereo not drawn)	25 (≈ 60.6 µM)	25 (≈ 60.6 µM)	25 (≈ 60.6 µM)	126	
CN(C)CC(O)COc1cccc2[nH]c3ccccc3c12 (stereo not drawn)	> 50	> 50	> 50	> 200	
CC(C)=CCn1c2ccccc2c2c(OCC(O)CN3CCCCC3)cccc21 (stereo not drawn)	6.25 (≈ 15.9 µM)	3.12 (≈ 7.96 µM)	3.12 (≈ 7.96 µM)	81.8	
CCCCCCCCCCNCC(O)COc1cccc2c1c1ccccc1n2CC=C(C)C (stereo not drawn)	6.25 (≈ 13.4 µM)	1.56 (≈ 3.36 µM)	3.12 (≈ 6.72 µM)	> 200	solubility [19]: Insoluble
CCCCCNCC(O)COc1cccc2c1c1ccccc1n2CC=C(C)C (stereo not drawn)	12.5 (≈ 31.7 µM)	6.25 (≈ 15.8 µM)	12.5 (≈ 31.7 µM)	> 200	
CCCCCCCCCn1c2ccccc2c2c(OCC3CO3)cccc21 (stereo not drawn)	> 50	> 50	> 50	> 200	

Compound	MIC (Staphylococcus aureus [1]) [µg/mL]	MIC (Staphylococcus aureus [2]) [µg/mL]	MIC (Staphylococcus aureus [3]) [µg/mL]	HC50 at 1 h [4] [µg/mL]	other results
CCN(CC)CC(O)COc1cccc2c1c1ccccc1n2CC=C(C)C (stereo not drawn)	12.5 (≈ 32.8 µM)	12.5 (≈ 32.8 µM)	12.5 (≈ 32.8 µM)	88.7	
CCNCC(O)COc1cccc2c1c1ccccc1n2CC=C(C)C (stereo not drawn)	6.25 (≈ 17.7 µM)	3.12 (≈ 8.87 µM)	6.25 (≈ 17.7 µM)	156	
Cn1c2ccccc2c2c(OCC3CO3)cccc21 (stereo not drawn)	> 50	> 50	> 50	> 200	
CC[N+](C)(CC)CC(O)COc1cccc2c1c1ccccc1n2CC=C(C)C.[I-] (stereo not drawn)	6.25	6.25	6.25	142	
CC(C)=CCn1c2ccccc2c2c(OCC(O)CN3CCCC3)cccc21 (stereo not drawn)	12.5 (≈ 33 µM)	6.25 (≈ 16.5 µM)	6.25 (≈ 16.5 µM)	76.2	
CC(C)=CCn1c2ccccc2c2c(OCC(O)CN(C)C)cccc21 (stereo not drawn)	6.25 (≈ 17.7 µM)	3.12 (≈ 8.87 µM)	3.12 (≈ 8.87 µM)	119	
CC(C)=CCn1c2ccccc2c2c(OCC(O)CN)cccc21 (stereo not drawn)	12.5 (≈ 38.5 µM)	6.25 (≈ 19.3 µM)	6.25 (≈ 19.3 µM)	> 200	
N=C(N)NCC(O)COc1cccc2[nH]c3ccccc3c12 (stereo not drawn)	50 (≈ 168 µM)	50 (≈ 168 µM)	50 (≈ 168 µM)	> 200	
CCCCCn1c2ccccc2c2c(OCC3CO3)cccc21 (stereo not drawn)	> 50	> 50	> 50	> 200	
CC(C)=CCn1c2ccccc2c2c(OCC(O)CN3CCSCC3)cccc21 (stereo not drawn)	> 50	> 50	> 50	> 200	
CCCn1c2ccccc2c2c(OCC3CO3)cccc21 (stereo not drawn)	> 50	> 50	> 50	> 200	
CCCn1c2ccccc2c2c(OCC(O)CN(C)C)cccc21 (stereo not drawn)	50 (≈ 153 µM)	50 (≈ 153 µM)	50 (≈ 153 µM)	> 200	
NCC(O)COc1cccc2[nH]c3ccccc3c12 (stereo not drawn)	> 50	> 50	> 50	> 200	
CCCCCn1c2ccccc2c2c(OCC(O)CN(C)C)cccc21 (stereo not drawn)	12.5 (≈ 35.3 µM)	6.25 (≈ 17.6 µM)	6.25 (≈ 17.6 µM)	152	
CN(C)CC(O)COc1cccc2c1c1ccccc1n2C (stereo not drawn)	> 50	> 50	> 50	> 200	
CC(C)=CCn1c2ccccc2c2c(OCC3CO3)cccc21 (stereo not drawn)	> 50	> 50	> 50	> 200	
CCCC[N+](C)(CCCC)CC(O)COc1cccc2c1c1ccccc1n2CC=C(C)C.[I-] (stereo not drawn)	1.56	1.56	1.56	61.3	
CCCCCCCCCn1c2ccccc2c2c(OCC(O)CN(C)C)cccc21 (stereo not drawn)	12.5 (≈ 30.4 µM)	6.25 (≈ 15.2 µM)	6.25 (≈ 15.2 µM)	128	

Reference: ChEMBL document CHEMBL4725344, “Development of Highly Potent Carbazole Amphiphiles as Membrane-Targeting Antimicrobials for Treating Gram-Positive Bacterial Infections” (J Med Chem, 2020)
